This note sets out measurements from patent US20230219978A1, “COMPOUND HAVING MACROCYCLIC STRUCTURE AND USE THEREOF” (SCINNOHUB PHARMACEUTICAL CO., LTD, priority 2020, published 2023).

What all share (format): biochemical
One test deals with T1, TRKa (Homo sapiens, UniProt P04629).
T1 construct: purchased Carna 08-186
The experiment in a line: In vitro kinase activity assay (mobility shift assay), TRKa. The settings on record: ATP 47.8 μM, reaction time 30 min. As for the experimental part: (§1) The IC50 (half inhibitory concentration) values of the compounds were used as an indicator to evaluate the inhibitory effect of the compound on RET wild-type, RET mutant, TRKa, SRC, BTK and/or mutated BTK kinase.
(§2) Using the method of Mobility shift assay, the compounds were tested for inhibitory activity against the following kinases: RET wild type, RET mutant, TRKa, SRC, BTK and/or mutated BTK. The initial concentration of the test compound was 1000 nM, 3-fold dilution, 10 concentrations, detected in a well for each concentration.
(§3) 20 mM hydroxyethylpiperazineethanesulfonic acid (Hepes) (pH 7.5) buffer, 10 mM MgCl2, 1 mM ethylene glycol bis(aminoethyl ether)tetraacetic acid (EGTA), 0.02% polyoxyethylene lauryl ether (Brij35), 0.02 mg/ml […] (BSA), 0.1 mM Na3VO4, 2 mM dithiothreitol (DTT), 1% DMSO.
(§4) The test compounds were dissolved in 100% dimethyl sulfoxide (DMSO) system, and prepared as 10 mM for use, and stored in a nitrogen cabinet away from light.
(§5) • (1) Preparing 1× kinase reaction buffer. • (2) Preparation of compound concentration gradient: the initial concentration of the compounds was 1000 nM, which was diluted as 100-fold final concentration of solution in 100% dimethyl sulfoxide (DMSO) in a 384-well plate. The compound was accurately 3-fold diluted with the kinase buffer solution, 10 concentrations in total, and the final concentration was 0.0508 nM. The 100-fold final concentration of solution in 100% dimethyl sulfoxide (DMSO) was obtained by dilution in 384 source plate. The liquid separator Echo 550 was used to transfer 250 nl of 100-fold final concentration of compound to the target 384 well plate. 250 nl of DMSO was added to the positive and negative control wells. • (3) 2.5-fold final concentration of kinase solution was prepared by the 1× kinase buffer. • (4) 10 4, of 2.5-fold final concentration of kinase solution was added to the compound well and the positive control well, respectively; 10 4, of 1× kinase buffer was added to the negative control well. • (5) After centrifuging at 1000 rpm for 30 second, the reaction plate was shaken and mixed, followed by incubation at room temperature for 10 min. • (6) a mixed solution of 25/15-fold final concentration of adenosine triphosphate (ATP) and kinase substrate was prepared by 1× kinase buffer. • (7) The mixed solution (15 μL) of 25/15-fold final concentration of adenosine triphosphate (ATP) and substrate was added to initiate the reaction. • (8) 384-well plate was centrifuged at 1000 rpm for 30 second, shaken and mixed well, and then incubated at room temperature for 30-240 min. • (9) After stopping the kinase reaction, the plate was centrifugated at 1000 rpm for 30 second, shaken and mixed well. • (10)The conversion rate was read with Caliper EZ Reader.
(§6) wherein Conversion%_sample is the conversion rate reading of the sample; Conversion%_min: the mean value of negative control wells, representing the conversion rate reading of wells without enzymes; Conversion%_max: the mean value of positive control wells, representing the conversion rate reading of wells without compound inhibition.
(§7) The log value of concentration was taken as the X axis, and the percentage inhibition rate was taken as the Y axis. Graphpad 6.0 analysis software was used to fit the dose-response curve, so as to obtain the IC50 value of each compound on the enzyme activity

Another test has as its target T2, RET wt (Homo sapiens, UniProt P07949).
T2 construct: purchased Carna 08-159
The experiment in a line: In vitro kinase activity assay (mobility shift assay), RET wild type. The settings on record: ATP 16 μM, reaction time 60 min. The procedure, abridged: (§8)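 Each enzyme was first exposed to test compound (top 1000 nM, 3-fold dilutions, 10 concentrations, one well each) for 10 min at room temperature. Adding ATP and peptide substrate started the reaction, which proceeded 30-240 min before stopping. Conversion was then measured and curves fitted for IC50.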

The target of a further test is T3, BTK C481S (Homo sapiens, UniProt Q06187, C481S).
T3 construct: purchased Carna 08-547
In words: In vitro kinase activity assay (mobility shift assay), BTK C481S. The settings on record: ATP 90 μM, reaction time 30 min. On the procedure: as §1, §2, §3, §4, §5, §6, §7

In the next test the target is T4, BTK (Homo sapiens, UniProt Q06187).
T4 construct: purchased Carna 08-180
In words: In vitro kinase activity assay (mobility shift assay), BTK. The settings on record: ATP 71 μM, reaction time 30 min. As for the experimental part:
as §1, §2, §3, §4, §5, §6, §7

The target in another test is T5, RET G810R (Homo sapiens, UniProt P07949, G810R).
T5 construct: purchased Proqinase 1724-0000-1
In words: In vitro kinase activity assay (mobility shift assay), RET G810R. The settings on record: ATP 201 μM, reaction time 4 h. The procedure, abridged: as §8

A further test has as its target T6, RET V804M (Homo sapiens, UniProt P07949, V804M).
T6 construct: purchased signalchem R02-12GG
The experiment in a line: In vitro kinase activity assay (mobility shift assay), RET V804M. The settings on record: ATP 5.4 μM, reaction time 60 min. Summed up:
as §8

T3 sequence (Q06187 whole entry C481S): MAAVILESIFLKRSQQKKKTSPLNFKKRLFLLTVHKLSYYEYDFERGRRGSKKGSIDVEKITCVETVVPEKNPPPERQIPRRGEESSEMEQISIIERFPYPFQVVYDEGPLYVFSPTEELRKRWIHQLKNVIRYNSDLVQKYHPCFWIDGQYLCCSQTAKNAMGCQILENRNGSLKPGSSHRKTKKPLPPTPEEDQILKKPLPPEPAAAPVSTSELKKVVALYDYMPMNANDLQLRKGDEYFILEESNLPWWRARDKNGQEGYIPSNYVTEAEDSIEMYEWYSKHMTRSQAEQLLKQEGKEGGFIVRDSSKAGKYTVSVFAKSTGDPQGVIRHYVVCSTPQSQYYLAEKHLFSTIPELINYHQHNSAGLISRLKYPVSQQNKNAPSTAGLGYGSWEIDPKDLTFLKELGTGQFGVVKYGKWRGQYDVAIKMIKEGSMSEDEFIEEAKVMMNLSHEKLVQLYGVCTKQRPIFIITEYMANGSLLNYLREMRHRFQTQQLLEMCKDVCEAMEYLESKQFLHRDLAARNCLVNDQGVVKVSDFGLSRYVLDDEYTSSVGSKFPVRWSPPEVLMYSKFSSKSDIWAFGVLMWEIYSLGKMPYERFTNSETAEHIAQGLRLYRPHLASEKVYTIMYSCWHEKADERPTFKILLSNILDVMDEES
T5 sequence (P07949 29-1114 G810R): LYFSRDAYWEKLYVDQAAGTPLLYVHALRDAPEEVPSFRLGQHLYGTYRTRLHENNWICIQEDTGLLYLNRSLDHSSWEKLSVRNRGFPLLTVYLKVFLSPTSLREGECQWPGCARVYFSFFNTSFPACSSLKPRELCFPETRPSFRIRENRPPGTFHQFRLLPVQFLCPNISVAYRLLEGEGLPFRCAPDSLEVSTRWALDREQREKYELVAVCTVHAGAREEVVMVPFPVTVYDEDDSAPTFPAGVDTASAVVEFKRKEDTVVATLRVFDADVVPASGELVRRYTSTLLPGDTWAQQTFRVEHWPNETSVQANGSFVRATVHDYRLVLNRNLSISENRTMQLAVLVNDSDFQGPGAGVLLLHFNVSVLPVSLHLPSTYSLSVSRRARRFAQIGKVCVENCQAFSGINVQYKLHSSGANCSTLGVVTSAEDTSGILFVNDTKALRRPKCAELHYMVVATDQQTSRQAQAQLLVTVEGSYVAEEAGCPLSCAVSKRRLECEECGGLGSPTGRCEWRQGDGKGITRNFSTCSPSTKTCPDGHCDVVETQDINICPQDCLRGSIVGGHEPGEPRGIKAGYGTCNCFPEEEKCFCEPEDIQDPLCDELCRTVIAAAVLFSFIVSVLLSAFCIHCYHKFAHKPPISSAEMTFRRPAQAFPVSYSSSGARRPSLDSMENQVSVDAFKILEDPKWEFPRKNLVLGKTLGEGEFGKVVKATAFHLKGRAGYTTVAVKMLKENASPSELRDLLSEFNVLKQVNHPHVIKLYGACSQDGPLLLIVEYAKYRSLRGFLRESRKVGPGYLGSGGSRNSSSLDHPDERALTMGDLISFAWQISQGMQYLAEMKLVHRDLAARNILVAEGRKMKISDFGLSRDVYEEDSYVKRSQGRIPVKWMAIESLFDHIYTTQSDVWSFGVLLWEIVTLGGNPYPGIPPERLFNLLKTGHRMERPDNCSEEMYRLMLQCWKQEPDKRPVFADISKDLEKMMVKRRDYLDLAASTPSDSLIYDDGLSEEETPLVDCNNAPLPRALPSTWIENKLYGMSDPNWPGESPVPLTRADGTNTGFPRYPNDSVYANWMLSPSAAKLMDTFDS
T4 sequence (Q06187 whole entry): as the sequence (Q06187 whole entry C481S) above, with S481C counted along it
T2 sequence (P07949 29-1114): as the sequence (P07949 29-1114 G810R) above, with R782G counted along it
T6 sequence (P07949 29-1114 V804M): as the sequence (P07949 29-1114 G810R) above, with V776M, R782G counted along it
T1 sequence (P04629 33-796): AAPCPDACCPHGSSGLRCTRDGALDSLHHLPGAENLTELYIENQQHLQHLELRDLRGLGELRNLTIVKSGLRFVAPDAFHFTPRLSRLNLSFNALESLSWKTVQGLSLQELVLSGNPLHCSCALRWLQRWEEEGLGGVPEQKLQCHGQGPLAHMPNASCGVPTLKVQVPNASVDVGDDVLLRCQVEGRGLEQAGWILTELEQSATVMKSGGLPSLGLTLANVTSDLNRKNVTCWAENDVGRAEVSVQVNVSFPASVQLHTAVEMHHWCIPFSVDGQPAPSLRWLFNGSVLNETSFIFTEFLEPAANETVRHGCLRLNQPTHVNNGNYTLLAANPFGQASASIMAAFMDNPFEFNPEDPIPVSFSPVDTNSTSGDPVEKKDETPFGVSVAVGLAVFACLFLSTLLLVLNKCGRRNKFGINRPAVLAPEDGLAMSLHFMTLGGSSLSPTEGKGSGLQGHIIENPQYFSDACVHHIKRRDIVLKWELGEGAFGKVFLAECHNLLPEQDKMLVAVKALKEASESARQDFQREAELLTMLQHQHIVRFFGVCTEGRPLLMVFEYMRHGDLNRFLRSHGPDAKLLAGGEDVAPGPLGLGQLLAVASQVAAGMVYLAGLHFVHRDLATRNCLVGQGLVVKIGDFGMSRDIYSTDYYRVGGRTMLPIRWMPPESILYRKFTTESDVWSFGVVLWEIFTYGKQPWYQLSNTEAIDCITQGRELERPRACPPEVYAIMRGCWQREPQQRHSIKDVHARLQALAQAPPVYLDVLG

`C[C@H]1CNC(=O)c2cnn3cc(-c4cccc(Cl)c4)c(nc23)NCc2cc(F)cnc2O1` [Compound 3, (S, 1^3E, 1^4E)-1^6-(3-chlorophenyl)-4^5-fluoro-6-methyl-5-oxa-2,8-diaza-1(5,3)-pyrazolo[1,5-a]pyrimidina-4(3,2)-pyridinacyclononaphan-9-one]: the IC50 at TRKa is greater than 10 µM; on RET wt, 22 nM; at BTK C481S, 54.8 nM.
For the compound `C[C@H]1CNC(=O)c2cnn3cc(-c4ccc(Cl)cc4)c(nc23)NCc2cc(F)cnc2O1` [Compound 9, (S, 1^3E, 1^4E)-1^6-(4-chlorophenyl)-4^5-fluoro-6-methyl-5-oxa-2,8-diaza-1(5,3)-pyrazolo[1,5-a]pyrimidina-4(3,2)-pyridinacyclononaphan-9-one], the IC50 on BTK was 25.9 nM; on TRKa it was greater than 10 µM; at RET wt, 8.2 nM; on BTK C481S, 13 nM.
`CC(C)OC(=O)Nc1ccc(-c2cn3ncc4c3nc2NCc2cc(F)cnc2O[C@@H](C)CNC4=O)c(Cl)c1` [Compound 45, iso-propyl 3-chloro-4-((S, 1^3E, 1^4E)-4^5-fluoro-6-methyl-9-oxo-5-oxa-aza-1(5,3)-pyrazolo[1,5-a]pyrimidin-4(3,2)-pyridinacyclononaphan-1^6-yl)phenyl) carbamate]: the IC50 at BTK was 346 nM; on RET wt, 3.9 nM; at BTK C481S it was 42.4 nM; at RET G810R, 70 nM.
On to `COC(=O)Nc1ccc(-c2c3nc4c(cnn4c2N)C(=O)NC[C@H](C)Oc2ncc(F)cc2CN3)cc1` [Compound 49, methyl (4-((S, 1^3E, 1^4E)-1^7-amino-4^5-fluoro-6-methyl-9-oxo-5-oxa-2,8-diaza-1(5,3)-pyrazolino [1,5-a]pyrimidin-4(3,2)-pyridinacyclononaphan-1^6-yl)-phenyl)carbamate], for which the IC50 was 9.2 nM at BTK; 1.3 nM at RET V804M; less than 0.51 nM at RET wt; 15 nM on BTK C481S; 9.3 nM on RET G810R.
Turning to `C[C@H]1CNC(=O)c2cnn3c(N)c(-c4ccc(Cl)cc4)c(nc23)NCc2cc(F)cnc2O1` [Compound 50, (S, 1^3E, 1^4E)-1^7-amino-1^6-(4-chlorophenyl)-4^5-fluoro-6-methyl-5-oxa-2,8-diaza-1(5,3)-pyrazolino[1,5-a]pyrimidin-4(3,2)-pyridinacyclononaphan-9-one], the IC50 at BTK came to 1.8 nM; on RET wt, 0.83 nM; at BTK C481S it was 1.48 nM.
With `C[C@H]1CNC(=O)c2cnn3c(N)c(-c4ccc(F)cc4)c(nc23)NCc2cc(F)cnc2O1` [Compound 51, (S, 1^3E, 1^4E)-1^7-amino-1^6-(4-fluorophenyl)-4^5-fluoro-6-methyl-5-oxa-2,8-diaza-1(5,3)-pyrazolino[1,5-a]pyrimidin4(3,2)-pyridinacyclononaphan-9-one], the values for the IC50 on BTK, at RET wt and at BTK C481S were 1 nM, 1.6 nM and 1.9 nM, respectively.
For `C[C@H]1CNC(=O)c2cnn3c(N)c(-c4ccc5[nH]ccc5c4)c(nc23)NCc2cc(F)cnc2O1` [Compound 53, (S, 1^3E, 1^4E)-1^7-amino-4^5-fluoro-1^6-(1H-indo1-5-yl)-6-methyl-5-oxo-2,8-diaza-1(5,3)-pyrazolo[1,5-a]pyrimidin-4(3,2)-pyridinacyclononaphan-9-one], the IC50 at BTK, on RET wt, on BTK C481S and at RET G810R was greater than 1000 nM in each case.
Regarding `Nc1c(-c2ccccc2)c2nc3c(cnn13)C(=O)NCCOc1ncc(F)cc1CN2` [Example 65, (1^3E, 1^4E)-1^7-amino-4^5-fluoro-1^6-phenyl-5-oxa-2,8-diaza-1(5,3)-pyrazolino[1,5-a]pyrimidin-4(3,2)-pyridinacyclononaphan-9-one], the values for the IC50 on BTK, on RET wt and at BTK C481S were 3.5 nM, 2.1 nM and 6.6 nM, respectively.
Regarding `Cc1nn2c(N)c(-c3ccccc3)c3nc2c1C(=O)NC[C@H](C)Oc1ncc(F)cc1CN3` [Example 74, (S, 1^3E, 1^4E)-1^7-amino-4^5-fluoro-1^2,6-dimethyl-1^6-phenyl-5-oxa-2,8-diaza-1(5,3)-pyrazolo[1,5-a]pyrimidinyl-4(3,2)-pyridinacyclononaphan-9-one], the IC50 at BTK is greater than 1000 nM; at RET V804M, greater than 1000 nM; on RET wt it was 323 nM; on BTK C481S, greater than 1000 nM; at RET G810R, greater than 1000 nM.
Turning to `C[C@H]1CN(C)C(=O)c2cnn3c(N)c(-c4ccccc4)c(nc23)NCc2cc(F)cnc2O1` [Example 75, (S, 1^3E, 1^4E)-1^7-amino-4^5-fluoro-6,8-dimethyl-1^6-phenyl-5-oxo-2,8-diaza-1(5,3)-pyrazolo[1,5-a]pyrimidin-4(3,2)-pyridinacyclononaphan-9-one], the IC50 is 22 nM on BTK; 311 nM at RET V804M; 20 nM at RET wt; 52 nM on BTK C481S; greater than 1000 nM at RET G810R.
`C[C@H]1CNC(=O)c2c(Br)nn3c(N)c(-c4ccccc4)c(nc23)NCc2cc(F)cnc2O1` [Example 76, (S, 1^3E, 1^4E)-1^2-bromo-1^6-phenyl-1^7-amino-4^5-fluoro-6-methyl-5-oxa-2,8-diaza-1(5,3)-pyrazolo[1,5-a]pyrimidinyl-4(3,2)-pyridinacyclononaphan-9-one]: the IC50 at BTK was greater than 1000 nM; at RET V804M, greater than 1000 nM; on RET wt, 922 nM; on BTK C481S, greater than 1000 nM; at RET G810R, greater than 1000 nM.
For `C[C@H]1CNC(=O)c2c(C#N)nn3c(N)c(-c4ccccc4)c(nc23)NCc2cc(F)cnc2O1` [Example 77, (S, 1^3E, 1^4E)-1^2-cyano-1^6-phenyl-1^7-amino-4^5-fluoro-6-methyl-5-oxa-2,8-diaza-1(5,3)-pyrazolo[1,5-a]pyrimidinyl-4(3,2)-pyridinacyclononaphan-9-one], the IC50 on BTK, at RET V804M, at RET wt, at BTK C481S and at RET G810R was greater than 1000 nM in each case.
In the case of `Nc1c(-c2ccccc2)c2nc3c(cnn13)C(=O)NC1CCCC1Oc1ncc(F)cc1CN2` (centres unmarked) [Example 78, (6^3E, 6^4E)-6^7-amino-1^5-fluoro-6^6-phenyl-2-oxo-4,7-diaza-6(3,5)-pyrazolo[1,5-a]pyrimidin-1(2,3)-pyridin-3(1, 2)-cyclopentanacyclooctaphan-5-one], the IC50 was determined as 1.7 nM at BTK; 24 nM at RET V804M; 2.5 nM at RET wt; 1.7 nM on BTK C481S; 337 nM at RET G810R.
In the case of `Nc1c(-c2ccccc2)c2nc3c(cnn13)C(=O)N1CCCC1COc1ncc(F)cc1CN2` (centres unmarked) [Example 79], the IC50 at BTK is 45 nM; at RET V804M it was greater than 1000 nM; at RET wt it was 104 nM; at BTK C481S, 97 nM; at RET G810R it was greater than 1000 nM.

As usually defined, the IC50 is the concentration that gives 50% inhibition.
